Assay results reported in patent publication EP0172632B1, “Benzopyrano[4,3,2-cd]indazole compounds, processes for their production and pharmaceutical compositions comprising the compounds” (WARNER-LAMBERT COMPANY, priority 1984, dated 1986).
pIC50: −log10 of the molar value. Where a name gives a salt, the structure may show the parent alone.

Key:
[1] = test system: L1210 cells; assay: L1210 in vitro cell growth inhibition; format: cell-based; settings: Mus musculus, 72 h; L1210 murine leukemia cells, three days incubation, 50% inhibition of growth; read-out: L1210 in vitro ID50
Method: Another test protocol uses L1210 cells, a murine leukemia cell line, grown in RPMI 1640 supplemented with 5% fetal bovine serum and gentamicin ([…]). Drug dilutions are prepared in the appropriate solvent and 20 µl of each dilution are added to 24-well Linbro tissue culture plates, followed by the addition of 2.0 ml of cell suspension containing 3 x 10^4 cells per ml. Solvent and medium controls are included in each test. After incubation at 37°C for three days in 5% CO2, the contents of each well are removed and the cells counted in a ZBI Counter counter. Percent growth are calculated relative to the controls and the levels of drug activity are expressed as ID50 in moles per liter.

[2] = test system: lymphocytic leukemia P388; assay: in vivo lymphocytic leukemia P388 test; settings: Mus musculus, P388, ip, 120 h, mice, survival time treated/control, read-out: P388 in vivo T/C×100; for response vs control in vivo at 12.5 mg/kg: Dose 12.5 mg/kg intraperitoneally once daily for five days; for response vs control in vivo at 25 mg/kg: Dose 25 mg/kg intraperitoneally once daily for five days
Method: Another test protocol is the in vivo lymphocytic leukemia P388 test. The animals used are either male or female CD2F, mice. There are six or seven animals per test group. The tumor transplant is by intraperitoneal injection of dilute ascitic fluid containing cells of lymphocytic leukemia P388. The test compounds are administered intraperitoneally once daily for five consecutive days at various doses following tumor inoculation. The animals are weighed and survivors are recorded on a regular basis for 30 days. A compound is designated "toxic" if, at a given dose, all animals died prior to four days after the first injection of drug. A ratio of survival time for treated (T)/control (C) animals is calculated. A criterion for efficacy is a ratio T/C times 100 greater than or equal to 125. See Cancer Chemotherapy Reports, Part 3, 3, 1 (1972) for a comprehensive discussion of the protocol.

[3] = test system: HCT-8 cells; assay: in vitro proliferating human colon adenocarcinoma (HCA) cell screen; format: cell-based; settings: 60 to 65 hours with compound, 50% inhibition of growth, read-out: HCA-4 in vitro ID50
Method: One test protocol is the in vitro proliferating human colon adenocarcinoma (HCA) cell screen. In this test, HCT-8 cells (HCA cell line received from Yale University) are trypsinized using trypsin-EDTA. A single cell suspension is achieved by passing the cells through a 26 gauge needle with a 20 cc syringe. A cell suspension is prepared using RPMI 1640 + 10% FCS + 50 µg/ml gentamicin sulfate with a cell concentration of approximately 30,000 cells/ml. The cell suspension is dispensed in Linbro 24-well plates; 1 ml/well. The plates are incubated for approximately 48 hours at 37°C in a 5% CO2 atmosphere. At this time test compounds are added in the appropriate concentration. Five µl of the 200 µg/ml stock solution is added to each well in a primary test. Ten ul of the appropriate dilution is added to each well for the titration test. The plates are reincubated an additional 60 to 65 hours at 37°C in a 5% C02 atmosphere. The cells are lysed using a mix of cationic surfactant, glacial acetic acid, and sodium chloride. Two ml of the lysed cell suspension from each well is added to 8 ml of diluent. The number of nuclei is determined using a Coulter counter (ZBI model), and a percent growth for each drug concentration is calculated. From this, an IDso (molar concentration of compound that results in 50% inhibition of growth) is determined.

[4] = test system: Penicillium avellaneum M2988; assay: in vitro antibacterial/antifungal (ABF) agar-disk diffusion assay; format: cell-based; settings: Hamigera avellanea, read-out: ABF Zone Diameter (Conc. in mg/ml) P. Avell-aneum; for zone of inhibition at 3000 µg/mL: Conc. 3 mg/ml
Method: (§1) Still another test protocol is the in vitro antibacterial/antifungal (ABF) test. Compounds are tested for antimicrobial activity in an agar-disk diffusion assay, a standard microbiological technique for testing antibiotics. After incubation of each culture with a test compound, a zone of inhibition is determined. The zone diameter (mm) of active compounds ranges from a minimum of 13.5 mm to as high as 60 mm, with a greater diameter reflecting higher activity. For convenience, values are reported for two gram-negative bacteria (Aerobacter aerogenes 0126 and Escherichia coli 04863), two gram-positive bacteria (Bacillus subtilis 04555 and Streptococcus faecalis 05045 utilizing AM-09 medium), and one mycelial fungus (Penicillium avellaneum M2988).

[5] = test system: Bacillus subtilis 04555; assay: as above; format: cell-based; settings: read-out: ABF Zone Diameter (Conc. in mg/ml) B. Sub-tilis; for zone of inhibition at 500 µg/mL: Conc. .5 mg/ml
Method: as §1

[6] = test system: Streptococcus faecalis 05045; assay: as above; format: cell-based; settings: Enterococcus faecalis, AM-09 medium, read-out: ABF Zone Diameter (Conc. in mg/ml) S. Fae-calis; for zone of inhibition at 500 µg/mL: Conc. .5 mg/ml
Method: as §1

[7] = test system: Streptococcus pneumoniae; assay: in vitro antibacterial (ABMF) microdilution susceptibility test; format: cell-based; settings: Mueller-Hinton broth microdilution, 37°C, 16-24 hours, read-out: ABMF Minimal Inhibitory Concentration (µ/ml) S. pneum.
Description: (§2) Still another test protocol is the in vitro antibacterial (ABMF) test which is a recognized standard microdilution susceptibility procedure in Mueller-Hinton broth against Gram-positive and Gram-negative bacterial test organisms. The procedure is a modification of a state-of-the-art procedure reported in Manual of Clinical Microbiology, Lennette, E. H., ed., by Barry, A. L. and C. Thornsberry at pages 463-474 and by Gavan, T. L. and A. L. Barry at pages 459―462, American Society for Microbiology, Washington, 1980.
(§3) In the test, a given bacterial culture is used to inoculate individual test wells of microdilution trays containing growth medium and test compound, the latter in a microdilution series: 1000, 333.111, 37,12, 4, 1.4, and 0.46 micrograms per milliliter. […] For convenience, values are reported for Escherichia coli, Corynebacterium Sp. ATCC 21698, Salmonella typhimurium, Streptococcus pneumoniae, and Rhodotorula aurantiaca.

[8] = test system: Corynebacterium Sp. ATCC 21698; assay: as above; format: cell-based; settings: ATCC21698, Mueller-Hinton broth microdilution, 37°C, 16-24 hours, read-out: ABMF Minimal Inhibitory Concentration (µ/ml) Coryn. sp.
Description: as §2, §3

[9] = test system: Salmonella typhimurium; assay: as above; format: cell-based; settings: Salmonella enterica, Mueller-Hinton broth microdilution, 37°C, 16-24 hours, read-out: ABMF Minimal Inhibitory Concentration (µ/ml) S. typh.
Description: as §2, §3

[10] = test system: Escherichia coli; assay: as above; format: cell-based; settings: Mueller-Hinton broth microdilution, 37°C, 16-24 hours, read-out: ABMF Minimal Inhibitory Concentration (µ/ml) E. coli
Description: as §2, §3

[11] = test system: Rhodotorula aurantiaca; assay: as above; format: cell-based; settings: Buckleyzyma aurantiaca; Mueller-Hinton broth microdilution, 37°C, 16-24 hours; read-out: ABMF Minimal Inhibitory Concentration (µ/ml) R. aurant
Description: as §2, §3

Structure (SMILES) | pIC50 [1] | pIC50 [3] | zone of inhibition at 3000 µg/mL [4] | zone of inhibition at 500 µg/mL [5] | zone of inhibition at 500 µg/mL [6] | response vs control in vivo at 12.5 mg/kg [2] | response vs control in vivo at 25 mg/kg [2] | MIC [7] | MIC [8] | MIC [9] | MIC [10] | MIC [11] | further results
CCN(CC)CCn1nc2c3c(c([N+](=O)[O-])ccc31)Oc1ccccc1-2 [Example 1, N,N-Diethyl-5-nitro-2H-[1] benzopyrano[4,3,2-cd]indazole-2-ethanamine] | 5.72 | 6.00 | 0 mm | 14 mm | 15 mm |  |  |  |  |  |  |  | response vs control in vivo at 100 mg/kg ([2]; Dose 100 mg/kg intraperitoneally once daily for five days): 138%; response vs control in vivo at 200 mg/kg ([2]; Dose 200 mg/kg intraperitoneally once daily for five days): 211%
O=[N+]([O-])c1ccc2c3c(nn2CCNCCO)-c2ccccc2Oc13 [Example 2, 2-[[2-(5-Nitro-2H-[1]benzopyrano[4,3,2-cd]-indazol-2-yl)ethyl]amino]ethanol, monohydrochloride] | 6.40 | 6.30 |  |  | 17 mm |  |  |  |  |  |  |  | response vs control in vivo at 50 mg/kg ([2]; Dose 50 mg/kg intraperitoneally once daily for five days): 141%; zone of inhibition at 100 µg/mL ([4]; Conc. .1 mg/ml): 19 mm; zone of inhibition at 100 µg/mL ([5]; Conc. .1 mg/ml): 17 mm
CCN(CC)CCn1nc2c3c(c(N)ccc31)Oc1ccccc1-2 [Example 3, 5-Amino-N,N-diethyl-2H-[1]benzopyrano[4,3,2-cd]indazol-2-ethanamine] | 5.89 | 5.62 |  |  |  |  |  |  |  |  |  |  | 
CCN(CC)CCn1nc2c3c(c(NCCN)ccc31)Oc1ccccc1-2 [Example 4, N-[2-[2-(Diethylamino)ethyl]-2H-[1]benzopyrano[4,3,2-cd]indazol-5-yl]ethanediamine, trihydrobromide, dihydrate] | 7.10 | 6.80 | 0 mm | 14 mm |  | 174% | 216% |  |  |  |  |  | zone of inhibition at 3000 µg/mL ([6]; Conc. 3 mg/ml): 16 mm
O=C(CNCCO)Nc1ccc2c3c(nn2CCNCCO)-c2cc(O)ccc2Oc13 [Example 17, 2-[2-[(2-Hydroxyethyl)amino]ethyl]-9-hydroxy-2H-[1]benzopyrano[4,3,2-cd]indazol-5-yl]-2-[(2-hydroxyethyl)amino]acetamide, hydrochloride] | 5.77 |  |  |  |  |  |  | > 1000 µg/mL | 333 µg/mL | > 1000 µg/mL | 1000 µg/mL | 1000 µg/mL | response vs control in vivo at 60 mg/kg ([2]; Dose 60 mg/kg intraperitoneally once daily for five days): 134%; response vs control in vivo at 120 mg/kg ([2]; Dose 120 mg/kg intraperitoneally once daily for five days): 142%; response vs control in vivo at 240 mg/kg ([2]; Dose 240 mg/kg intraperitoneally once daily for five days): 184%
OCCNCCNc1ccc2c3c(nn2CCNCCO)-c2cc(O)ccc2Oc13 [Example 18, 2-[2[(2-Hydroxyethyl)amino]ethyl]-5-[[2-[(2-hydroxyethyl)amino]ethyl]amino-2H [1]benzopyrano[4,3,2-cd]indazol-9-ol, hydrochloride] | 6.89 |  |  |  |  | 236% | 236% | 333 µg/mL | 37 µg/mL | 1000 µg/mL | 111 µg/mL | > 1000 µg/mL | response vs control in vivo at 6.25 mg/kg ([2]; Dose 6.25 mg/kg intraperitoneally once daily for five days): 173%
